From patent US20170152226A1, “FUNCTIONALISED AND SUBSTITUTED INDOLES AS ANTI-CANCER AGENTS” (Novogen Ltd., priority 2014, published 2017) come the findings set out here.

The subject of one data set is MM96L. In words: Anti-proliferative activity, MTS viability assay. It is filed as cell-based. The note with it: Homo sapiens, 72 hours exposure, read-out: IC50 Melanoma MM96L. On the procedure: (§1) The anti-proliferative activity of compound 3507 was further evaluated in cell lines representative of melanoma, prostate cancer, leukaemia and neuroblastoma. Cell viability after 72 hours exposure to increasing concentrations of compound 3507 was measured using an MTS viability assay. Cell viability was normalized to control (vehicle alone) and dose-response curves, and relative inhibitory concentration (IC50) values were determined using GraphPad Prism 6.
(Tetrazolium dyes change colour on reduction, which living cells bring about.)

The next data set concerns BL. In words: Anti-proliferative activity, MTS viability assay. The data set is classed as cell-based. The note with it: 72 hours exposure, read-out: IC50 Melanoma BL. On the procedure: as §1
A further data set relates to HL-60. In words: Anti-proliferative activity, MTS viability assay. It is filed as cell-based. The note with it: Homo sapiens, 72 hours exposure, read-out: IC50 Leukemia HL-60. On the procedure:
as §1

For the next data set, the system named is BPH-1. In words: Anti-proliferative activity, MTS viability assay. It is filed as cell-based. Particulars: Homo sapiens, 72 hours exposure, read-out: IC50 Prostate BPH-1. On the procedure: as §1
The subject of another data set is MM329. In words: Anti-proliferative activity, MTS viability assay. It is filed as cell-based. The note with it: 72 hours exposure, read-out: IC50 Melanoma MM329. Here is the method: as §1
The subject of the next data set is THP-1. In words: Anti-proliferative activity, MTS viability assay. The data set is classed as cell-based. The note with it: Homo sapiens, 72 hours exposure, read-out: IC50 Leukemia THP-1. Here is the method:
as §1

The subject of a further data set is CHP-134. Nature of the data set: Anti-proliferative activity, MTS viability assay. The data set is classed as cell-based. The note with it: Homo sapiens, 72 hours exposure, read-out: IC50 Neuroblastoma CHP-134. Here is the method: as §1
A further data set relates to CHLA-20. Nature of the data set: Anti-proliferative activity, MTS viability assay. The note with it: 72 hours exposure, read-out: IC50 Neuroblastoma CHLA-20. It is filed as cell-based. Here is the method:
as §1

For a further data set, the system named is SK-N-Be(2). In words: Anti-proliferative activity, MTS viability assay. The data set is classed as cell-based. Particulars: Homo sapiens, SKNBE2, 72 hours exposure, read-out: IC50 Neuroblastoma SK-N-Be(2). Here is the method: as §1
The next data set concerns SKMEL13. In words: Anti-proliferative activity, MTS viability assay. The data set is classed as cell-based. Particulars: 72 hours exposure, read-out: IC50 Melanoma SKMEL13. Here is the method:
as §1

In the next data set the test system is A2058. In words: Anti-proliferative activity, MTS viability assay. The data set is classed as cell-based. Particulars: Homo sapiens, 72 hours exposure, read-out: IC50 Melanoma A2058. On the procedure:
as §1

The test system of another data set is A549. In words: Anti-proliferative activity, cell-titre luminescent viability assay. The data set is classed as cell-based. Particulars: Homo sapiens, A549, 72 h, 0.03, 0.3, 3 and 30 μM, linear regression of semi-log plots, read-out: IC50 Lung (NSLC) A549. A digest of the protocol: (§2)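 Cells were seeded at pre-determined densities, cultured 24 hours at 37° C/5% CO2, then exposed 72 hours to compound at 0.03, 0.3, 3 and 30 μM or at 0.1, 0.3, 1, 3, 10 and 30 μM. Viability was read by cell-titre luminescence after 30 min, normalized to untreated control, and IC50 or EC50 derived.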

The test system of the next data set is CaCo2. The description is as above. The data set is classed as cell-based. The note with it: Homo sapiens, Caco-2, 72 h, 0.03, 0.3, 3 and 30 μM, linear regression of semi-log plots, read-out: IC50 Colorectal CaCo2. A digest of the protocol:
as §2

The next data set deals with SK-Mel-28. The description is as above. It is filed as cell-based. The note with it: Homo sapiens, SK-MEL-28; 72 hours; 0.03, 0.3, 3 and 30 μM; linear regression of semi-log plots; read-out: IC50 Melanoma SK-Mel-28. A digest of the protocol: as §2
In a further data set the test system is MDA-MB-231. The data set is described as above. Particulars: Homo sapiens, MDA-MB-231, 72 h, 0.03, 0.3, 3 and 30 μM, linear regression of semi-log plots, read-out: IC50 Breast MDA-MB-231. The data set is classed as cell-based. A digest of the protocol:
as §2

The next data set has as its system SK-N-SH. Described as above. Particulars: Homo sapiens, SK-N-SH, 72 h, 0.03, 0.3, 3 and 30 μM, linear regression of semi-log plots, read-out: IC50 Neuroblastoma SK-N-SH. The data set is classed as cell-based. A digest of the protocol: as §2
Another data set deals with PC3. Described as above. The data set is classed as cell-based. Particulars: Homo sapiens, PC-3, 72 h, 0.03, 0.3, 3 and 30 μM, linear regression of semi-log plots, read-out: IC50 Prostate PC3. A digest of the protocol: as §2
Another data set has as its system DU145. The description is as above. It is filed as cell-based. Particulars: Homo sapiens, DU-145, 72 h, 0.03, 0.3, 3 and 30 μM, linear regression of semi-log plots, read-out: IC50 Prostate DU145. A digest of the protocol:
as §2

In a further data set the test system is A375 tumours. In words: Human melanoma (A375) xenograft model. Particulars: 60 mg/kg intravenously twice a week. It is filed as in vivo. On the procedure:
FIG. 5: Compound 3507/30% w/v Dexolve-7 was administered IV 2×/week at 60 mg/kg for 14 days in a flank xenograft model of melanoma (A375). Tumour volume was measured every 2-3 days. ** p<0.01.
The in vivo efficacy of 3507 was also evaluated in a human melanoma (A375) xenograft model. A375 tumours were established in female Foxn-1 nu/nu athymic mice by injecting approximately five million cells subcutaneously in the right flank region of the animal. When the tumours reached 130-150 mm^3 the animals were randomized into four groups, (n=8 or 12 animals/group) so that the average tumour volume of all the groups was same. Group 1 received vehicle (30% w/v Dexolve-7 in sterile water) twice a week intravenously, and Group 2 was dosed with 3507/Dexolve-7 at 60 mg/kg, twice a week intravenously. Tumours and body weight was measured two to three times in a week. In addition, throughout the study period mice were monitored daily for clinical condition.
(In general: In xenograft studies the graft and the host belong to different species.)

One may read the IC50 as the concentration needed to halve the response being measured. In the case of `Cc1c(C)n(CCCN2CCN(C)CC2)c2ccc(Oc3cccc(C(=O)N4CCN(CCc5ccc(F)cc5)CC4)c3)cc12` [Compound 3507, (3-((2,3-dimethyl-1-(3-(4-methylpiperazin-1-yl)propyl)-1H-indol-5-yl)oxy)phenyl)(4-(4-fluorophenethyl)piperazin-1-yl)methanone], the IC50 amounted to 3.27 µM in the data set with MM96L; 5.83 µM in the data set on BL; 1.16 µM in the data set on HL-60; 0.72 µM with BPH-1; 3.8 µM in the data set with MM329; 0.8 µM with THP-1. Besides, the IC50 in the data set on CHP-134 was found to be 7.2 µM; in the data set on CHLA-20, 6.9 µM; with SK-N-Be(2), 5.47 µM; in the data set with SKMEL13, 3.72 µM; in the data set on A2058 it was 4.06 µM; in the data set on A549, 1.2 µM. Moreover, the IC50 came to 2.5 µM in the data set on CaCo2; 1 µM in the data set on SK-Mel-28; 1.4 µM with MDA-MB-231; 1.4 µM in the data set on SK-N-SH; 1.2 µM with PC3; 1.3 µM with DU145. In addition, the tolerability result in the data set with A375 tumours is listed as “well tolerated”. In addition, in the data set on A375 tumours (after 14 days treatment), the “reduction of melanoma tumour growth compared to vehicle control” value is listed as ~60%. The body weights entry in the data set on A375 tumours (throughout the study period) is recorded as “comparable to the control group”.
